Several values for one entry are separate records, joined by “and”; a condition that tells them apart may be missing. Identical values can stand only once.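 In this assay, cells in 96-well plates receive the compound at five concentrations for 48 hours. Endpoints are linearly interpolated between the surrounding concentrations. The concentration for 50% growth inhibition is given as GI50. TGI: total growth inhibition.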
Key:
Assay in all cases: NCI tumour cell line growth inhibition, 48 h
[1] = test system: A549 NSCLC
[2] = test system: BT-549 breast
[3] = test system: K-562 leukemia
[4] = test system: MDA-MB-231 breast
[5] = test system: NCI-H460 lung
[6] = test system: NCI/ADR-RES ovarian
[7] = test system: U251 CNS
[8] = test system: RXF 393 renal

Structure (SMILES)	GI50 [1] [µM]	TGI [1]	GI50 [2] [nM]	TGI [2]	GI50 [3] [nM]	TGI [3] [µM]	GI50 [4] [µM]	TGI [4]	GI50 [5] [µM]	TGI [5]	GI50 [6] [µM]	TGI [6]	GI50 [7] [nM]	TGI [7]	GI50 [8] [µM]	TGI [8]
COC(=O)[C@H](C)NC(=O)[C@@H](OC)[C@@H]1Cc2cc3cc(OC4CC(OC5CC(O)C(O)C(C)O5)C(O)C(C)O4)c(C)c(O)c3c(O)c2C(=O)[C@H]1OC1CC(OC2CC(OC3CC(C)(O)C(O)C(C)O3)C(O)C(C)O2)C(O)C(C)O1 (stereo partly specified)	0.195	> 50 µM	88.1	1.2 µM	179	> 50	0.247	> 50 µM	0.0344	> 50 µM	12.3	> 50 µM	73	> 50 µM		
CCCCCCCCCCCCCCCCCCOc1ccccc1CC(=O)NCC[N+](C)(C)C	4.91	51.8 µM	3250	> 100 µM	3200	> 100	4.27	66.6 µM	3.47	52.4 µM	22.6	62.6 µM				
Cc1nc2c(N3CCCC3)nc(N3CCNCC3)nc2nc1NCc1ccccc1	5.45	12.6 µM and 14.2 µM	5050	10.7 µM and 14.8 µM	1060	23.8	5.67	12.1 µM and 10.1 µM	5.97	13.3 µM and 13.4 µM	6.84	13.6 µM and 29 µM	4270	11.7 µM and 13 µM	4.81	11 µM and 2.66 µM
COc1ccc2c(c1)c(-c1ccc(-c3cn(C)c4ccc(OC)cc34)[nH]1)cn2C	4.04	17.6 µM	2090	5.3 µM	1480	6.8			4.09	19.5 µM	3.39	20 µM	1400	3.52 µM	1.4	3.52 µM
CC1(C)CC([P+](c2ccccc2)(c2ccccc2)c2ccccc2)=NN1	5.1	> 100 µM	1030	4.42 µM	3550	> 100	13.7	> 100 µM	6.09	> 100 µM	> 100	> 100 µM	2000	> 100 µM	28.2	> 100 µM
NC(=O)c1ccccc1NC(=O)c1ccccc1Cl	> 100	> 100 µM	> 100000	> 100 µM	> 100000	> 100	> 100	> 100 µM	> 100	> 100 µM	> 100	> 100 µM	> 100000	> 100 µM	> 100	> 100 µM
Fc1ccc2c(c1)C1=C(CO2)C(c2ccc(Cl)cc2)NC(=S)N1 (stereo unspecified)	33.2	> 100 µM			30400	> 100	18.8	55.7 µM	21.9	61.8 µM	29.8	65.4 µM	18700	63.1 µM		
Cc1ncc(C(=O)Nc2ccc(CN3CCN(C)CC3)c(C(F)(F)F)c2)cc1C#Cc1c(N)ncc2ccccc12	0.488	1.03 µM	894	1.96 µM	3.32	0.453	0.163	0.65 µM	0.447	0.952 µM	0.67	1.54 µM	539	1.07 µM	0.465	0.915 µM
